biological target: T1, human ACC2 (Homo sapiens, UniProt O00763); test: ACC2 assay, spectrophotometric 384 well assay (NADH-linked, coupled lactate dehydrogenase/pyruvate kinase); assay type: biochemical; details: ACC2 assay, hACC2 construct lacking 128 N-terminal amino acids, 25° C., 340 nm; read-out: IC50
T1 construct: made in house; host or cells: insect cells (baculoviral expression system)
Summary of the method: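 Human ACC2 lacking N-terminal 128 aa, baculovirus/insect-cell expressed, anion-exchange purified; 100 mM Tris pH 7.5, 10 mM citrate, 25 mM KHCO3, 1% DMSO. Started with 200 μM NADH and acetyl-CoA plus 500 μM ATP; PK/LDH-coupled A340 decrease read 15 min at 25° C. IC50 by nonlinear fit of low-control-subtracted slopes.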

T1 sequence (O00763 129-2458 limits assumed): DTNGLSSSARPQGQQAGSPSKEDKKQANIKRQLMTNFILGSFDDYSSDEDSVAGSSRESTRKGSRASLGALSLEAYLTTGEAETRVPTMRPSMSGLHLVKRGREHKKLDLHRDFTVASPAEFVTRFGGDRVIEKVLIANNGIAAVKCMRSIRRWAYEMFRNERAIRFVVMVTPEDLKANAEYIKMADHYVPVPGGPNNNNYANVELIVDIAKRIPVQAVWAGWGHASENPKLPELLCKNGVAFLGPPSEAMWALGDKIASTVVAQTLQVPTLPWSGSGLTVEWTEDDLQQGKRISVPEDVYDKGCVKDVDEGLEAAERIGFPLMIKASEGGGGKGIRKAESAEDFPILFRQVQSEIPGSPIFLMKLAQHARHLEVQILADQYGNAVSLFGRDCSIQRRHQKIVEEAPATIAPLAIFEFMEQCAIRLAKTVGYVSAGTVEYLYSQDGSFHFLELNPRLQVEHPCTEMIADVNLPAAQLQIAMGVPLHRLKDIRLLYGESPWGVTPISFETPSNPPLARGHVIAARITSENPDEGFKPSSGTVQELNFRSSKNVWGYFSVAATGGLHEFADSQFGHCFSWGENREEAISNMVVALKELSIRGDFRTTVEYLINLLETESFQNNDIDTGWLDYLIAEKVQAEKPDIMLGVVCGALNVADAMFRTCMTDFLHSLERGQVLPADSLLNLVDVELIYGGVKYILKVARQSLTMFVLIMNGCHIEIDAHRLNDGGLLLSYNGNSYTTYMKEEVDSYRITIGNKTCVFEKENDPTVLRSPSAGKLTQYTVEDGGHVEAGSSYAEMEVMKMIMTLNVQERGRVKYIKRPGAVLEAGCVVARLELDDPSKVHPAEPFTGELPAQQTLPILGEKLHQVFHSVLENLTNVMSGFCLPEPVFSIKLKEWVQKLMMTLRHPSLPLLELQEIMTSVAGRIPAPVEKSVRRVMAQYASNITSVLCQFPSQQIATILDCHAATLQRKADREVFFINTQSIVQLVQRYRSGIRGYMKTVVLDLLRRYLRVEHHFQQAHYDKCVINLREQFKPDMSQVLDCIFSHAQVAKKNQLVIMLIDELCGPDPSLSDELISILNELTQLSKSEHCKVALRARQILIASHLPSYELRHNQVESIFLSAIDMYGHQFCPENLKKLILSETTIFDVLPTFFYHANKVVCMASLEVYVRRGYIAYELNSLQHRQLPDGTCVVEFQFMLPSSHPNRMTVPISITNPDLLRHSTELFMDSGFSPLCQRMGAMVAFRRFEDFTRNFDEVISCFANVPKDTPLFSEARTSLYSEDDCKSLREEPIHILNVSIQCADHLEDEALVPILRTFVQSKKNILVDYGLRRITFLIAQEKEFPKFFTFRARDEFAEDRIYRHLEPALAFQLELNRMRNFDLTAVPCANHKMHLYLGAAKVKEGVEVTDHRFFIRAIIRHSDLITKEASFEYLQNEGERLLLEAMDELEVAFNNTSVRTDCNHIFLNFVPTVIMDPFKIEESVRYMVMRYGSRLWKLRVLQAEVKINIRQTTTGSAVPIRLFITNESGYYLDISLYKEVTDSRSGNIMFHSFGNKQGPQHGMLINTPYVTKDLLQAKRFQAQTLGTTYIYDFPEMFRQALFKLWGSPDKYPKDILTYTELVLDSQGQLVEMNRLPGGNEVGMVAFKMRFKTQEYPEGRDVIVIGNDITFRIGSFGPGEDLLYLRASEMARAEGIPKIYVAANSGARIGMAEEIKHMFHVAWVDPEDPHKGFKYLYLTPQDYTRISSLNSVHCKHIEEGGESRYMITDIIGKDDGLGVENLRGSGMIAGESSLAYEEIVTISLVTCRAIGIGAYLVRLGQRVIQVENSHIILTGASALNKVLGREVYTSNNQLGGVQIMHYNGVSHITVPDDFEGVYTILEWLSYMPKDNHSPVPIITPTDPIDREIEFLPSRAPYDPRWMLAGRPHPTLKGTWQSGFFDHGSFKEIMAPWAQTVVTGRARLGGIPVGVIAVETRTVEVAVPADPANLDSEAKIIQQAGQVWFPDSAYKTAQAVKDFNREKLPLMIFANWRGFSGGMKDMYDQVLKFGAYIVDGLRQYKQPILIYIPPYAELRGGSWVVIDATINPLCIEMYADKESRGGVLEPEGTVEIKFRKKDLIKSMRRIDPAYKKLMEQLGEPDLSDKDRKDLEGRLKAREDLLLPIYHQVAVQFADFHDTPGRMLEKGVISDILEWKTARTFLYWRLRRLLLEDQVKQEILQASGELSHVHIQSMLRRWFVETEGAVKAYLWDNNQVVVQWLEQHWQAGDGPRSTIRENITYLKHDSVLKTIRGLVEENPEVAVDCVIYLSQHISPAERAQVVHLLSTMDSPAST

| SMILES | IC50 [µM] |
| --- | --- |
| CCOc1ccc(N2CCC(c3ccc([C@H](C)NS(=O)(=O)C(F)(F)F)cc3)CC2)cc1 [Example 17.4] | 11.3 |
| CC(=O)N[C@@H](C)c1ccc(C2CCN(c3ncc(C(=O)N(C)Cc4ccncc4)cn3)CC2)cc1 [Example 18.1, (S)-2-{4-[4-(1-Acetylamino-ethyl)-phenyl]-piperidin-1-yl}-pyrimidine-5-carboxylic acid methyl-pyridin-4-ylmethyl-amide] | 9.8 |
| CC(=O)N[C@@H](C)c1ccc(C2CCN(c3ncc(C(=O)Nc4cccc(F)c4)cn3)CC2)cc1 [Example 18.2] | 1.4 |
| CC(=O)N[C@@H](C)c1ccc(C2CCN(c3ncc(C(=O)Nc4ccc(F)cc4)cn3)CC2)cc1 [Example 18.3] | 0.18 |
| CC(=O)N[C@@H](C)c1ccc(C2CCN(c3ncc(C(=O)N(C)c4ccc(C)cc4)cn3)CC2)cc1 [Example 18.4] | 1.8 |
| CC(=O)N[C@@H](C)c1ccc(C2CCN(c3ncc(C(=O)NC4CC4)cn3)CC2)cc1 [Example 18.5] | 1.9 |
| CC(=O)N[C@@H](C)c1ccc(C2CCN(c3ncc(C(=O)Nc4ccccc4F)cn3)CC2)cc1 [Example 18.6] | 0.26 |
| CC(=O)N[C@@H](C)c1ccc(C2CCN(c3ncc(C(=O)Nc4ccccc4C)cn3)CC2)cc1 [Example 18.7] | 3.6 |
| CC(=O)N[C@@H](C)c1ccc(C2CCN(c3ncc(C(=O)Nc4cccc(C)c4)cn3)CC2)cc1 [Example 18.8] | 0.26 |
| CC(=O)N[C@@H](C)c1ccc(C2CCN(c3ncc(C(=O)N4CCc5ccccc54)cn3)CC2)cc1 [Example 18.9] | 1.6 |
| CC(=O)N[C@@H](C)c1ccc(C2CCN(c3ncc(C(=O)N(C)CC4OCCO4)cn3)CC2)cc1 [Example 18.10] | 11.5 |
| CC(=O)N[C@@H](C)c1ccc(C2CCN(c3ncc(C(=O)N4CCCCC4)cn3)CC2)cc1 [Example 18.11] | 0.74 |
| COc1cccc(NC(=O)c2cnc(N3CCC(c4ccc([C@H](C)NC(C)=O)cc4)CC3)nc2)c1 [Example 18.12] | 0.42 |
| CC(=O)N[C@@H](C)c1ccc(C2CCN(c3ncc(C(=O)NCc4ccccn4)cn3)CC2)cc1 [Example 18.13] | 6.1 |
| COc1ccccc1CNC(=O)c1cnc(N2CCC(c3ccc([C@H](C)NC(C)=O)cc3)CC2)nc1 [Example 18.14] | 10.2 |
| CC(=O)N[C@@H](C)c1ccc(C2CCN(c3ncc(C(=O)Nc4ccccn4)cn3)CC2)cc1 [Example 18.15] | 7.2 |
| COc1ccccc1NC(=O)c1cnc(N2CCC(c3ccc([C@H](C)NC(C)=O)cc3)CC2)nc1 [Example 18.16] | 5.1 |
| CC(=O)N[C@@H](C)c1ccc(C2CCN(c3ncc(C(=O)Nc4ccc(C)cc4)cn3)CC2)cc1 [Example 18.17] | 7.9 |
| CC(=O)N[C@@H](C)c1ccc(C2CCN(c3ncc(C(=O)Nc4ccc5c(c4)OCO5)cn3)CC2)cc1 [Example 18.18] | 1.1 |
| COc1ccc(CNC(=O)c2cnc(N3CCC(c4ccc([C@H](C)NC(C)=O)cc4)CC3)nc2)cc1 [Example 18.19] | 20.5 |
| CC(=O)N[C@@H](C)c1ccc(C2CCN(c3ncc(C(=O)N4CC5CCCC5C4)cn3)CC2)cc1 (stereo partly drawn) [Example 18.20] | 0.53 |
| CC(=O)N[C@@H](C)c1ccc(C2CCN(c3ncc(C(=O)NCc4cc[nH]n4)cn3)CC2)cc1 [Example 18.21] | 2.6 |
| CC(=O)N[C@@H](C)c1ccc(C2CCN(c3ncc(C(=O)NCc4ccn(C)n4)cn3)CC2)cc1 [Example 18.22] | 11.4 |
| COC1CN(C(=O)c2cnc(N3CCC(c4ccc([C@H](C)NC(C)=O)cc4)CC3)nc2)C1 [Example 18.23] | 3.1 |
| COC1CCN(C(=O)c2cnc(N3CCC(c4ccc([C@H](C)NC(C)=O)cc4)CC3)nc2)CC1 [Example 18.24] | 5.2 |
| COCCN(C)C(=O)c1cnc(N2CCC(c3ccc([C@H](C)NC(C)=O)cc3)CC2)nc1 [Example 18.25] | 7.1 |

| SMILES | IC50 [µM] |
| --- | --- |
| CC(=O)N[C@@H](C)c1ccc(C2CCN(c3ncc(C(=O)N(C)C4CC4)cn3)CC2)cc1 [Example 18.26] | 2.5 |
| COC[C@H]1CCCN1C(=O)c1cnc(N2CCC(c3ccc([C@H](C)NC(C)=O)cc3)CC2)nc1 [Example 18.27] | 10.4 |
| CC(=O)N[C@@H](C)c1ccc(C2CCN(c3ncc(C(=O)N4Cc5cnn(C)c5C4)cn3)CC2)cc1 [Example 18.28] | 16.9 |
| CC(=O)N[C@@H](C)c1ccc(C2CCN(c3ncc(C(=O)NCc4cocn4)cn3)CC2)cc1 [Example 18.29] | 6.5 |
| CC(=O)N[C@@H](C)c1ccc(C2CCN(c3ncc(C(=O)NC4CC4(F)F)cn3)CC2)cc1 (stereo partly drawn) [Example 18.30] | 5.2 |
| CC(=O)N[C@@H](C)c1ccc(C2CCN(c3ncc(C(=O)N(C)Cc4cccnc4)cn3)CC2)cc1 [Example 18.31] | 9.3 |
| CC(=O)N[C@@H](C)c1ccc(C2CCN(c3ncc(C(=O)NCc4ccoc4)cn3)CC2)cc1 [Example 18.32] | 5.3 |
| CC(=O)N[C@@H](C)c1ccc(C2CCN(c3ncc(C(=O)Nc4cccc5c4OCO5)cn3)CC2)cc1 [Example 18.33] | 1.5 |
| CC(=O)N[C@@H](C)c1ccc(C2CCN(c3ncc(C(=O)NCc4ncccn4)cn3)CC2)cc1 [Example 18.34] | 3.5 |
| CC(=O)N[C@@H](C)c1ccc(C2CCN(c3ncc(C(=O)N[C@H]4CCOC4)cn3)CC2)cc1 [Example 18.35] | 7.3 |
| CC(=O)N[C@@H](C)c1ccc(C2CCN(c3ncc(C(=O)N4[C@@H]5CC[C@H]4C[C@@H](O)C5)cn3)CC2)cc1 [Example 18.36] | 13.2 |
| CC(=O)N[C@@H](C)c1ccc(C2CCN(c3ncc(C(=O)N(C)Cc4ccccn4)cn3)CC2)cc1 [Example 18.37] | 6.4 |
| CC(=O)N[C@@H](C)c1ccc(C2CCN(c3ncc(C(=O)N4Cc5cccnc5C4)cn3)CC2)cc1 [Example 18.38] | 3.1 |
| CC(=O)N[C@@H](C)c1ccc(C2CCN(c3ncc(C(=O)NC4COC4)cn3)CC2)cc1 [Example 18.39] | 15.2 |
| CC(=O)N[C@@H](C)c1ccc(C2CCN(c3ncc(C(=O)N4CCc5cnccc54)cn3)CC2)cc1 [Example 18.40] | 6.6 |
| CC(=O)N[C@@H](C)c1ccc(C2CCN(c3ncc(C(=O)NCC4CCCCO4)cn3)CC2)cc1 (stereo partly drawn) [Example 18.41] | 21.4 |
| CC(=O)N[C@@H](C)c1ccc(C2CCN(c3ncc(C(=O)N(C)CC#N)cn3)CC2)cc1 [Example 18.42] | 14 |
| CC(=O)N[C@@H](C)c1ccc(C2CCN(c3ncc(C(=O)N(C)CCN(C)C)cn3)CC2)cc1 [Example 18.43] | 16.8 |
| CCN1CCCC1CNC(=O)c1cnc(N2CCC(c3ccc([C@H](C)NC(C)=O)cc3)CC2)nc1 (stereo partly drawn) [Example 18.44] | 18.3 |
| CC(=O)N[C@@H](C)c1ccc(C2CCN(c3ncc(C(=O)NCC(N)=O)cn3)CC2)cc1 [Example 18.45] | 17.2 |
| CC(=O)N[C@@H](C)c1ccc(C2CCN(c3ncc(C(=O)N4Cc5ccncc5C4)cn3)CC2)cc1 [Example 18.46] | 6 |
| CC(=O)N[C@@H](C)c1ccc(C2CCN(c3ncc(C(=O)NCCCO)cn3)CC2)cc1 [Example 18.47] | 29.1 |
| CC(=O)N[C@@H](C)c1ccc(C2CCN(c3ncc(C(=O)NC(C)C)cn3)CC2)cc1 [Example 18.48] | 3.6 |
| CC(=O)N[C@@H](C)c1ccc(C2CCN(c3ncc(C(=O)NC[C@H](O)CO)cn3)CC2)cc1 [Example 18.50] | 13.3 |
| CC(=O)N[C@@H](C)c1ccc(C2CCN(c3ncc(C(=O)NCCN4CCCC4)cn3)CC2)cc1 [Example 18.51] | 13.8 |
